Results from patent US20100184674A1, “PROADRENOMEDULLIN ALONE OR IN COMBINATION WITH BIG GASTRIN I AS A THERAPEUTIC AGENT” (priority 2007, published 2010).
Where no end group is shown, it is not given here. [ ]: non-standard residue; d: D form. pGlu = O=C1CC[C@@H](C(=O)O)N1

What was measured:
[1] = tested on: HIV-1IIIB; assay: HIV-1 antiviral assay in CEM-SS cells (MTS readout)
[2] = tested on: HCMV strain AD169; assay: HCMV plaque formation assay in MRC-5 cells; settings: for inhibition of HCMV plaque formation as compared to the virus control: 10 micrograms per ml, 7-10 days
[3] = tested on: hepatitis B virus (HBV) ayw strain; assay: HBV assay in HepG2-2.2.15 cells (TaqMan PCR of secreted HBV DNA); format: cell-based; settings: 10 micrograms per ml; six days; combination 0.95 mole peptide 1 and 1.05 mole peptide 2
Description: HepG2-2.2.15 is a stable cell line containing the hepatitis B virus (HBV) ayw strain genome (ATCC Cat. No. CRL-11997). Antiviral compounds blocking any late step of viral replication such as transcription, translation, pregenome encapsidation, reverse transcription, particle assembly and release can be identified and characterized using this cell line. In this assay, an active compound will reduce the production of secreted HBV from cells, measured by utilizing real time quantitative PCR (TaqMan) assay to directly and accurately measure HBV DNA copies. […] After 16-24 hours the confluent monolayer of HepG2-2.2.15 cells was washed and the medium was replaced with complete medium containing test peptides—10 micrograms per ml—in duplicate. Lamivudine (3TC) was used as the positive control, while media alone was added to the cells as a negative control (virus control). […] Six days following the initial administration of the peptides, the cell culture supernatants was collected, treated with pronase and DNAse and then used in a real-time quantitative TaqMan PCR assay. The PCR-amplified HBV DNA was detected in real-time by monitoring increases in fluorescence signals that result from the exonucleolytic degradation of a quenched fluorescence probe molecule that hybridizes to the amplified HBV DNA. […] Antiviral activity was calculated from the reduction in HBV DNA levels (% virus control). […]

[4] = tested on: Primary Human endothelial cells (HUVEC); assay: Endothelial cell migration assay; format: cell-based; settings: 10 micrograms per ml; 22 hours
[5] = tested on: murine spleen cells; assay: Th1/Th2 cytokine profiling assay (Ovalbumin restimulation); format: cell-based, Balb/c mice; settings: 10 micrograms per ml, 72 hours
[6] = tested on: HUVEC; assay: Endothelial tube formation assay; format: cell-based, human; settings: 10 micrograms per ml; 20 hours
Description: The endothelial tube formation assay is based on the ability of endothelial cells to form three-dimensional capillary-like tubular structures when cultured on a gel of basement membrane extract. […] Pre-labeled HUVEC with Calcein AM were seeded in a 96-well culture plate coated with extracellular metrix (Chemicon international Cat. ECM625) and treated with test peptides—10 micrograms per ml—in full growth medium. Positive control wes vehicle only. The endothelial cells were allowed to form tubes foe 20 hours and were then examined under an inverted fluorescent microscope. Duplicate wells for each treatment were photographed and quantitatevily analyzed for an average tubule length using image analysis software ImageProPlus. Raw data were expressed as average tubule lengths in pixels ±standard deviation. Statistic p values were computed using the Student's t-test.

[7] = combination 0.95 mole peptide 1 and 1.05 mole peptide 2

Compound | antiviral activity of positive control compounds [1] | inhibition of HBV replication as compared to the virus control infection [3] [%] | inhibition of the migration of human endothelial cells [4] | inhibition of HCMV plaque formation as compared to the virus control [2] | change of the production of IFN-γ [5, 7] | change of the production of TNF-alpha [5, 7] | further results
Cc1cn([C@H]2C[C@H](N=[N+]=[N-])[C@@H](CO)O2)c(=O)[nH]c1=O [AZT] | expected levels of antiviral activity |  |  |  |  |  | 
Nc1nc(O)c2ncn(COC(CO)CO)c2n1 [Ganciclovir, reference compound] |  |  |  |  |  |  | antiviral activity of positive control compound ([2]; positive control, MRC-5 cells, HCMV AD169): expected levels of antiviral activity
CC(C)(C)NC(=O)[C@@H]1CN(Cc2cccnc2)CCN1C[C@@H](O)C[C@@H](Cc1ccccc1)C(=O)N[C@H]1c2ccccc2C[C@H]1O [indinavir] | expected levels of antiviral activity |  |  |  |  |  | 
Ala-Arg-Leu-Asp-Val-Ala-Ser-Glu-Phe-Arg-Lys-Lys-Trp-Asn-Lys-Trp-Ala-Leu-Ser-Arg-NH2 (ARLDVASEFRKKWNKWALSR-NH2) [Peptide 1] |  | 10.0 | did not inhibit | did not inhibit | did not significantly change | did not significantly change | production of IL-2, induced by [5]: 44.3%; production of IL-4, induced by [5]: 43.2%; change of the production of IL-5 [5, 7]: did not significantly change
Pyr-Leu-Gly-Pro-Gln-Gly-Pro-Pro-His-Leu-Val-Ala-Asp-Pro-Ser-Lys-Lys-Gln-Gly-Pro-Trp-Leu-Glu-Glu-Glu-Glu-Glu-Ala-Tyr-Gly-Trp-Met-Asp-Phe-NH2 ([pGlu]LGPQGPPHLVADPSKKQGPWLEEEEEAYGWMDF-NH2; SMILES CSCC[C@H](NC(=O)[C@H](Cc1c[nH]c2ccccc12)NC(=O)CNC(=O)[C@H](Cc1ccc(O)cc1)NC(=O)[C@H](C)NC(=O)[C@H](CCC(=O)O)NC(=O)[C@H](CCC(=O)O)NC(=O)[C@H](CCC(=O)O)NC(=O)[C@H](CCC(=O)O)NC(=O)[C@H](CCC(=O)O)NC(=O)[C@H](CC(C)C)NC(=O)[C@H](Cc1c[nH]c2ccccc12)NC(=O)[C@@H]1CCCN1C(=O)CNC(=O)[C@H](CCC(N)=O)NC(=O)[C@H](CCCCN)NC(=O)[C@H](CCCCN)NC(=O)[C@H](CO)NC(=O)[C@@H]1CCCN1C(=O)[C@H](CC(=O)O)NC(=O)[C@H](C)NC(=O)[C@@H](NC(=O)[C@H](CC(C)C)NC(=O)[C@H](Cc1c[nH]cn1)NC(=O)[C@@H]1CCCN1C(=O)[C@@H]1CCCN1C(=O)CNC(=O)[C@H](CCC(N)=O)NC(=O)[C@@H]1CCCN1C(=O)CNC(=O)[C@H](CC(C)C)NC(=O)[C@@H]1CCC(=O)N1)C(C)C)C(=O)N[C@@H](CC(=O)O)C(=O)N[C@@H](Cc1ccccc1)C(N)=O) [Peptide 2] |  | 11.3 | 35% | did not inhibit | did not significantly change | did not significantly change | inhibition of the tube formation of human endothelial cells [6]: 9%; production of IL-2, suppressed by [5]: 100%; production of IL-4, suppressed by [5]: 100%; production of IL-5, deceased by [5]: 44.5%
